Where “and” joins values, the source holds several entries; their conditions need not be identical. Identical values can stand only once. Results filed as inconclusive are left out.
Test system: BDF1 mice, colon carcinoma 38 sc, T/C %
Test: NCI In Vivo Anticancer Drug Screen. Data for tumor model Colon Carcinoma 38 (subcutaneous) in B6D2F1 (BDF1) mice
Conditions: endpoint: median tumor weight (est.), higher = larger tumour
Protocol: The antitumor activity of compounds was measured in mice bearing transplantable tumors. Survival or tumor size were measured and the results are expressed as the measurement made in the treated group (T) divided by the measurement made in the vehicle treated control group (C). The tumor model used in this assay is Colon Carcinoma 38 (subcutaneous) in B6D2F1 (BDF1) mice

[1] = dose: 6.25 mg/kg/injection, schedule: Q07DX002 (ip), vehicle: saline with Tween-80
[2] = dose: 12.5 mg/kg/injection, schedule: Q07DX002 (ip), vehicle: saline with Tween-80
[3] = dose: 50.0 mg/kg/injection, schedule: Q07DX002 (ip), vehicle: saline with Tween-80
[4] = dose: 100.0 mg/kg/injection, schedule: Q07DX002 (ip), vehicle: saline with Tween-80
[5] = dose: 200.0 mg/kg/injection, schedule: Q07DX002 (ip), vehicle: saline
[6] = dose: 400.0 mg/kg/injection, schedule: Q07DX002 (ip), vehicle: saline

NC(Cc1ccc(N(CCCl)Cc2ccccc2)cc1)C(=O)O (stereo not drawn)
T/C (dose: 3.12 mg/kg/injection, schedule: Q07DX002 (ip), vehicle: distilled water + Tween-80): 69 % of control and 90 % of control
T/C (dose: 6.25 mg/kg/injection, schedule: Q07DX002 (ip), vehicle: distilled water + Tween-80): 108 % of control
T/C (dose: 12.5 mg/kg/injection, schedule: Q07DX002 (ip), vehicle: distilled water + Tween-80): 51 % of control and 70 % of control
T/C (dose: 25.0 mg/kg/injection, schedule: Q07DX002 (ip), vehicle: distilled water + Tween-80): 109 % of control and 108 % of control
T/C (dose: 50.0 mg/kg/injection, schedule: Q07DX002 (ip), vehicle: distilled water + Tween-80): 72 % of control and 92 % of control

COC1=C(OC)C(=O)C(Sc2ccc3ccccc3c2)=CC1=O
T/C [1]: 86 % of control
T/C [2]: 63 % of control
T/C [3]: 90 % of control and 98 % of control
T/C [4]: 87 % of control and 88 % of control
T/C (dose: 200.0 mg/kg/injection, schedule: Q07DX002 (ip), vehicle: saline with Tween-80): 74 % of control

Cc1ncc([N+](=O)[O-])n1CCO
T/C (dose: 37.5 mg/kg/injection, schedule: Q01DX005 (ip), vehicle: Klucel (hydroxypropylcellulose) (HPC)): 78 % of control
T/C (dose: 37.5 mg/kg/injection, schedule: Q04DX003 (ip), vehicle: Klucel (hydroxypropylcellulose) (HPC)): 88 % of control
T/C (dose: 75.0 mg/kg/injection, schedule: Q01DX005 (ip), vehicle: Klucel (hydroxypropylcellulose) (HPC)): 61 % of control
T/C (dose: 75.0 mg/kg/injection, schedule: Q04DX003 (ip), vehicle: Klucel (hydroxypropylcellulose) (HPC)): 121 % of control
T/C (dose: 75.0 mg/kg/injection, schedule: Q07DX002 (ip), vehicle: Klucel (hydroxypropylcellulose) (HPC)): 74 % of control
T/C (dose: 150.0 mg/kg/injection, schedule: Q01DX005 (ip), vehicle: Klucel (hydroxypropylcellulose) (HPC)): 83 % of control
T/C (dose: 150.0 mg/kg/injection, schedule: Q04DX003 (ip), vehicle: Klucel (hydroxypropylcellulose) (HPC)): 80 % of control
T/C (dose: 150.0 mg/kg/injection, schedule: Q07DX002 (ip), vehicle: Klucel (hydroxypropylcellulose) (HPC)): 156 % of control
T/C (dose: 300.0 mg/kg/injection, schedule: Q01DX005 (ip), vehicle: Klucel (hydroxypropylcellulose) (HPC)): 93 % of control
T/C (dose: 300.0 mg/kg/injection, schedule: Q04DX003 (ip), vehicle: Klucel (hydroxypropylcellulose) (HPC)): 75 % of control
T/C (dose: 300.0 mg/kg/injection, schedule: Q07DX002 (ip), vehicle: Klucel (hydroxypropylcellulose) (HPC)): 103 % of control
T/C (dose: 600.0 mg/kg/injection, schedule: Q01DX005 (ip), vehicle: Klucel (hydroxypropylcellulose) (HPC)): 105 % of control
T/C (dose: 600.0 mg/kg/injection, schedule: Q07DX002 (ip), vehicle: Klucel (hydroxypropylcellulose) (HPC)): 99 % of control

CCOC(=O)C1=C(C#N)C2(CCC(OCc3ccccc3)CC2)C(=O)O1 (stereo not drawn)
T/C (dose: 25.0 mg/kg/injection, schedule: Q07DX002 (ip), vehicle: saline): 47 % of control
T/C (dose: 25.0 mg/kg/injection, schedule: Q07DX002 (ip), vehicle: suspension in saline): 87 % of control
T/C (dose: 50.0 mg/kg/injection, schedule: Q07DX002 (ip), vehicle: saline): 53 % of control
T/C (dose: 100.0 mg/kg/injection, schedule: Q07DX002 (ip), vehicle: saline): 35 % of control
T/C (dose: 100.0 mg/kg/injection, schedule: Q07DX002 (ip), vehicle: suspension in saline): 115 % of control
T/C [5]: 73 % of control
T/C [6]: 47 % of control
T/C (dose: 400.0 mg/kg/injection, schedule: Q07DX002 (ip), vehicle: suspension in saline): 102 % of control
T/C (dose: 800.0 mg/kg/injection, schedule: Q07DX002 (ip), vehicle: saline): 64 % of control
T/C (dose: 800.0 mg/kg/injection, schedule: Q07DX002 (ip), vehicle: suspension in saline): 102 % of control

Nc1ncnc2c1ncn2C1OC(COP(=O)(O)O)C(O)C1O (stereo not drawn)
T/C (dose: 12.5 mg/kg/injection, schedule: Q07DX003 (ip), vehicle: water): 79 % of control
T/C (dose: 25.0 mg/kg/injection, schedule: Q07DX003 (ip), vehicle: water): 70 % of control
T/C (dose: 50.0 mg/kg/injection, schedule: Q07DX003 (ip), vehicle: water): 60 % of control
T/C (dose: 80.0 mg/kg/injection, schedule: Q07DX002 (ip), vehicle: water): 81 % of control
T/C (dose: 100.0 mg/kg/injection, schedule: Q07DX003 (ip), vehicle: water): 95 % of control
T/C (dose: 160.0 mg/kg/injection, schedule: Q07DX002 (ip), vehicle: water): 70 % of control
T/C [5]: 94 % of control
T/C (dose: 200.0 mg/kg/injection, schedule: Q07DX003 (ip), vehicle: water): 118 % of control
T/C (dose: 320.0 mg/kg/injection, schedule: Q07DX002 (ip), vehicle: water): 80 % of control
T/C [6]: 89 % of control
T/C (dose: 400.0 mg/kg/injection, schedule: Q07DX003 (ip), vehicle: water): 56 % of control
T/C (dose: 640.0 mg/kg/injection, schedule: Q07DX002 (ip), vehicle: water): 86 % of control
T/C (dose: 1600.0 mg/kg/injection, schedule: Q07DX002 (ip), vehicle: saline): 77 % of control
T/C (dose: 3200.0 mg/kg/injection, schedule: Q07DX002 (ip), vehicle: saline): 50 % of control

NC(=S)c1cn(C2OC(CO)C(O)C2O)c2ncnc(N)c12 (stereo not drawn)
T/C (dose: 1.25 mg/kg/injection, schedule: Q07DX002 (ip), vehicle: suspension in saline): 108 % of control
T/C (dose: 2.5 mg/kg/injection, schedule: Q07DX002 (ip), vehicle: suspension in saline): 81 % of control
T/C (dose: 5.0 mg/kg/injection, schedule: Q07DX002 (ip), vehicle: suspension in saline): 104 % of control
T/C (dose: 10.0 mg/kg/injection, schedule: Q07DX002 (ip), vehicle: suspension in saline): 82 % of control

CC1(C)OC2C(COC(=O)c3ccc([N+](=O)[O-])cc3)OC(NC(=O)N(CCCl)N=O)C2O1 (stereo not drawn)
T/C [1]: 62 % of control
T/C [2]: 112 % of control and 123 % of control
T/C (dose: 12.5 mg/kg/injection, schedule: Q07DX003 (ip), vehicle: saline with Tween-80): 106 % of control
T/C (dose: 25.0 mg/kg/injection, schedule: Q07DX002 (ip), vehicle: saline with Tween-80): 68 % of control
T/C (dose: 25.0 mg/kg/injection, schedule: Q07DX003 (ip), vehicle: saline with Tween-80): 88 % of control
T/C [3]: 61 % of control and 82 % of control
T/C (dose: 50.0 mg/kg/injection, schedule: Q07DX003 (ip), vehicle: saline with Tween-80): 68 % of control
T/C [4]: 48 % of control and 67 % of control
T/C (dose: 100.0 mg/kg/injection, schedule: Q07DX003 (ip), vehicle: saline with Tween-80): 40 % of control
T/C (dose: 200.0 mg/kg/injection, schedule: Q07DX003 (ip), vehicle: saline with Tween-80): 4 % of control

NC(=O)Oc1cccc(OC(N)=O)c1
T/C (dose: 25.0 mg/kg/injection, schedule: Q07DX003 (ip), vehicle: other): 63 % of control
T/C (dose: 50.0 mg/kg/injection, schedule: Q07DX003 (ip), vehicle: other): 103 % of control
T/C (dose: 100.0 mg/kg/injection, schedule: Q07DX003 (ip), vehicle: other): 51 % of control
T/C (dose: 200.0 mg/kg/injection, schedule: Q07DX003 (ip), vehicle: other): 68 % of control
T/C (dose: 400.0 mg/kg/injection, schedule: Q07DX003 (ip), vehicle: other): 75 % of control

O=C(Cc1cccc2c(=O)cc(-c3ccccc3)oc12)OCCN1CCOCC1
T/C (dose: 100.0 mg/kg/injection, schedule: Q07DX002 (ip), vehicle: Klucel (hydroxypropylcellulose) (HPC)): 115 % of control
T/C (dose: 200.0 mg/kg/injection, schedule: Q07DX002 (ip), vehicle: Klucel (hydroxypropylcellulose) (HPC)): 92 % of control

Source: PubChem BioAssay AID212 (DTP/NCI, 2004)
